Where “and” joins values, the source holds several entries; their conditions need not be identical. Equal values may be shown once.
Key:
Type in all cases: functional, Homo sapiens
TERT-RPE1 = assay: (§1) Here: values are normalized to the negative (DMSO; defined as 0% autophagy induction) and positive (250nM Torin1; mTOR inhibitor; defined as maximal inducer of autophagy = 100%) control compounds and represented as % of autophagy induction. […] The impact of autophagy induction on cells is complex and depends on the affected target. As such, the magnitude of a phenotype may not be equally mirrored in the %-value of autophagy induction and vice versa. The dynamics of the induction may indicate the mode of activation: e.g. activation via phosphorylation or a signaling cascade may occur fast, while activation via transcription factors may take considerably longer. […] Of note, treatment concentrations may be sub-optimal for specific compounds, leading to false negative annotations.; conditions: Culturing Media DMEM/F12 (1:1), 1 % Penicillin/Streptomycin, 10% Fetal bovin serum Add-On: No, Screening Media Control DMEM/F12 (1:1), Screening Media Samples DMEM/F12 (1:1)
U2OS [1] = assay: as §1; conditions: Culturing Media DMEM, 1 % Penicillin/Streptomycin, 10% Fetal bovin serum Add-On: No, Screening Media Control DMEM, Screening Media Samples DMEM
U2OS [2] = assay: as §1; conditions: Culturing Media DMEM, 1 % Penicillin/Streptomycin, 10% Fetal bovin serum Add-On: No, Screening Media Control DMEM, Screening Media Samples DMEM; remark: listed apart in the source
[3] = Compound Concentration 0.5 uM, Timepoint 12 hours, 12 h, 0.5 µM
[4] = Compound Concentration 0.5 uM, Timepoint 24 hours, 24 h, 0.5 µM
[5] = Compound Concentration 0.5 uM, Timepoint 36 hours, 36 h, 0.5 µM
[6] = Compound Concentration 0.5 uM, Timepoint 60 hours, 60 h, 0.5 µM
[7] = Compound Concentration 2 uM, Timepoint 12 hours, 12 h, 2 µM
[8] = Compound Concentration 2 uM, Timepoint 24 hours, 24 h, 2 µM
[9] = Compound Concentration 2 uM, Timepoint 36 hours, 36 h, 2 µM
[10] = Compound Concentration 2 uM, Timepoint 60 hours, 60 h, 2 µM
[11] = Compound Concentration 10 uM, Timepoint 12 hours, 12 h, 10 µM
[12] = Compound Concentration 10 uM, Timepoint 24 hours, 24 h, 10 µM
[13] = Compound Concentration 10 uM, Timepoint 36 hours, 36 h, 10 µM
[14] = Compound Concentration 10 uM, Timepoint 60 hours, 60 h, 10 µM
[15] = Compound Concentration 0.5 uM, Timepoint 12 hours
[16] = Compound Concentration 0.5 uM, Timepoint 24 hours
[17] = Compound Concentration 0.5 uM, Timepoint 36 hours
[18] = Compound Concentration 0.5 uM, Timepoint 60 hours
[19] = Compound Concentration 2 uM, Timepoint 12 hours
[20] = Compound Concentration 2 uM, Timepoint 24 hours
[21] = Compound Concentration 2 uM, Timepoint 36 hours
[22] = Compound Concentration 2 uM, Timepoint 60 hours
[23] = Compound Concentration 10 uM, Timepoint 12 hours
[24] = Compound Concentration 10 uM, Timepoint 24 hours
[25] = Compound Concentration 10 uM, Timepoint 36 hours
[26] = Compound Concentration 10 uM, Timepoint 60 hours

For `CC1=C2C[C@H]3[C@@H](CC=C4C[C@@H](O)CC[C@@]43C)[C@@H]2CC[C@]12O[C@@H]1C[C@H](C)CN[C@H]1[C@H]2C` [CYCLOPAMINE], the autophagy induction (TERT-RPE1; [3]) was -1.95% and 0.112%, the autophagy induction (TERT-RPE1; [4]) was -5.579% and 2.177% and the autophagy induction (TERT-RPE1; [5]) was -7.952% and 1.185%. For the same molecule, the autophagy induction (TERT-RPE1; [6]) was -10.1078% and 0.5911%, the autophagy induction (TERT-RPE1; [7]) was -0.5068% and 11.5959% and the autophagy induction (TERT-RPE1; [8]) was -0.6761% and 8.252%. The autophagy induction (TERT-RPE1; [9]) was -1.445% and 8.279%, the autophagy induction (TERT-RPE1; [10]) was -2.949% and 8.955% and the autophagy induction (TERT-RPE1; [11]) was 18.7284% and 8.103%. The autophagy induction (TERT-RPE1; [12]) was 21.8058% and 8.836%, the autophagy induction (TERT-RPE1; [13]) was 27.6829% and 10.6231% and the autophagy induction (TERT-RPE1; [14]) was 29.1115% and 13.2783%. For the same molecule, the autophagy induction (U2OS [1]; [15]) was -10.7714%, the autophagy induction (U2OS [1]; [16]) was -6.065% and the autophagy induction (U2OS [1]; [17]) was -46.3072%. It also gave an autophagy induction (U2OS [1]; [18]) of -1.6767%, an autophagy induction (U2OS [1]; [19]) of -23.8167% and an autophagy induction (U2OS [1]; [20]) of -9.227%. For the same molecule, the autophagy induction (U2OS [1]; [21]) was -62.0777%, the autophagy induction (U2OS [1]; [22]) was -2.064% and the autophagy induction (U2OS [1]; [23]) was -31.4833%. For the same molecule, the autophagy induction (U2OS [1]; [24]) was -9.078%, the autophagy induction (U2OS [1]; [25]) was -61.7295% and the autophagy induction (U2OS [1]; [26]) was -4.044%. It also gave an autophagy induction (U2OS [2]; [15]) of -5.379%, an autophagy induction (U2OS [2]; [16]) of -12.5809% and an autophagy induction (U2OS [2]; [17]) of -11.7869%. For the same molecule, the autophagy induction (U2OS [2]; [18]) was -7.179%, the autophagy induction (U2OS [2]; [19]) was -12.942% and the autophagy induction (U2OS [2]; [20]) was -16.2845%. It also gave an autophagy induction (U2OS [2]; [21]) of -11.3886%, an autophagy induction (U2OS [2]; [22]) of -12.7281% and an autophagy induction (U2OS [2]; [23]) of -9.168%. The autophagy induction (U2OS [2]; [24]) was -9.072%, the autophagy induction (U2OS [2]; [25]) was -3.104% and the autophagy induction (U2OS [2]; [26]) was 2.518%.

With `Cc1c(F)cccc1NC(=O)Nc1ccc(Cl)c(S(=O)(=O)[C@H]2CCCNC2)c1O` [DANIRIXIN] the autophagy induction (TERT-RPE1; [3]) was -1.988% and 1.2715%, the autophagy induction (TERT-RPE1; [4]) was -2.9066% and -1.048% and the autophagy induction (TERT-RPE1; [5]) was -6.399% and -2.355%. For the same molecule, the autophagy induction (TERT-RPE1; [6]) was -5.802% and -6.526%, the autophagy induction (TERT-RPE1; [7]) was -2.5% and 0.287% and the autophagy induction (TERT-RPE1; [8]) was -3.213% and -0.8718%. The autophagy induction (TERT-RPE1; [9]) was -5.9285% and 0.3135%, the autophagy induction (TERT-RPE1; [10]) was -6.839% and -1.623% and the autophagy induction (TERT-RPE1; [11]) was 1.595% and 0.8887%. The autophagy induction (TERT-RPE1; [12]) was 3.736% and 2.2115%, the autophagy induction (TERT-RPE1; [13]) was 4.117% and 5.758% and the autophagy induction (TERT-RPE1; [14]) was 6.176% and 5.1403%. It also gave an autophagy induction (U2OS [1]; [15]) of 3.972%, an autophagy induction (U2OS [1]; [16]) of -2.873% and an autophagy induction (U2OS [1]; [17]) of -59.8201%. The autophagy induction (U2OS [1]; [18]) was -1.181%, the autophagy induction (U2OS [1]; [19]) was -1.664% and the autophagy induction (U2OS [1]; [20]) was -3.195%. It also gave an autophagy induction (U2OS [1]; [21]) of -60.7356%, an autophagy induction (U2OS [1]; [22]) of -1.731% and an autophagy induction (U2OS [1]; [23]) of -5.705%. For the same molecule, the autophagy induction (U2OS [1]; [24]) was -2.005%, the autophagy induction (U2OS [1]; [25]) was -60.1624% and the autophagy induction (U2OS [1]; [26]) was -1.218%. The autophagy induction (U2OS [2]; [15]) was -10.8402%, the autophagy induction (U2OS [2]; [16]) was -17.1359% and the autophagy induction (U2OS [2]; [17]) was -12.7926%. The autophagy induction (U2OS [2]; [18]) was -5.9905%, the autophagy induction (U2OS [2]; [19]) was -6.206% and the autophagy induction (U2OS [2]; [20]) was -10.5833%. It also gave an autophagy induction (U2OS [2]; [21]) of -10.8283%, an autophagy induction (U2OS [2]; [22]) of -13.8786% and an autophagy induction (U2OS [2]; [23]) of -11.164%. It also gave an autophagy induction (U2OS [2]; [24]) of -5.925%, an autophagy induction (U2OS [2]; [25]) of -8.152% and an autophagy induction (U2OS [2]; [26]) of -8.851%.

Reference: ChEMBL document CHEMBL5724696, “Autophagy assay results for EUbOPEN Chemogenomics Library” (2024)
